Assay results published in patent US7635779B2, “Oxy substituted flavones as antihyperglycemic and antidyslipidemic agents” (Council of Scientific & Industrial Research, priority 2004, dated 2009).
Marks after values point to notes of the source that are not given here.

Columns and labels:
db/db mice = assay: Antidyslipidemic activity in db/db mice; type: in vivo, mouse; conditions: for % Fall in lipid levels HDL: HDL-cholesterol; for % Fall in lipid levels HDL / % Fall in lipid levels Chol.: + marks a rise; for % Fall in lipid levels Chol.: cholesterol; for % Fall in lipid levels TG: triglycerides
Text: The db/db mouse is a well-characterized model of type II diabetes. The background for the db/db mouse is the C57BL/Ks strain. The major deficiency of the C57BL/KsBom-db mouse (db/db) is lack of a functional leptin receptor. This leads to defective leptin signaling and a complete lack of feedback from leptin. […] The db/db mouse develops NIDDM from around week 10. The disease is stable until week 20, where destruction of pancreatic β-cells can be recognized clinically as decreasing levels of plasma insulin and very severe hyperglycemia. The male mice are more diabetic than female and will normally die earlier. The advantage of using male mice for experimental purposes is that the fluctuations in plasma parameters are less than in the females where the estrogen cycles affects the clinical diabetes mellitus. The optimal age of db/db mice used for experiments will be from week 12 to 18 when they have developed NIDDM with diabetic dyslipidemia but still have functional β-cells in the pancreas. C57BL/KsBom-db mice 12-18 weeks, 40-50 g bred in the animal house of CDRI, Lucknow. 10 male mice were used in the experiments. The mice were housed in groups of 5 individuals in a room controlled for temperature (23+2° C.) and 12/12 hours light/dark cycle (lights on at 6.00 am). Body weight was measured daily from day 1 to day 10. All animals had free access to fresh water and to normal chow except on the days of the postprandial protocol day 6 and during the overnight fast before the OGTT on day 10. Blood glucose was checked every morning up till day 5. On day 6 postprandial protocol was employed, in this method blood glucose was checked at −0.30 min and 0 h. Test compounds were given to the treatment group whereas control group received only gum acacia (1.0%); the blood glucose was again checked at 1, 2, 3, 4 and 6 h post test compound treatment. Finally on day 10 an oral glucose tolerance test (OGTT) was performed after an overnight fasting. Blood glucose was measured at −0.30 min and test drugs were fed, blood glucose was again measured at 0.0 min post treatment, at this juncture glucose solution was given at a dose of 3 gm/kg to all the groups including control group; the profile of blood glucose was checked at 30 min, 60 min, 90 min and 120 min post glucose administration. Quantitative glucose tolerance of each animal was calculated by Area Under Curve (AUC) method (Prism Software). Comparing the AUC of experimental and control groups determined the percentage antihyperglycemic activity. Statistical comparison was made by Dunnett's test.
Cholesterol and triglycerides were estimated using the same procedures as given above.
HDL-Cholesterol was estimated using the kit provided by the Roche Diagnostics. Cholestest N HDL is a liquid reagent that directly measures the HDL-cholesterol concentration in serum by a new method that is based on the selective solubilising effect of proprietary detergent to the different lipoproteins. In the assay system, only HDL is solubilised by a special detergent; other lipoproteins are not disrupted. After HDL is selectively disrupted, HDL cholesterol is measured enzymatically (Gordon, T.; Casstelli, W. P.; Hjortland, M. C.; Kannel, W. B.; Dawber, T. R. High density lipoproteins as a protective factor against coronary heart disease, Am. J. Med. 1977, 62, 707-714.).

Swiss mice [1] = assay: Gross behaviour: motor responses (SMA, gait, posture); type: in vivo, mouse; set-up: key to SMA Score: scale 0-9; control group SMA = 4; conditions: for Effect on motor responses: 100 mg/kg; for SMA Score: 100 mg/kg p.o., control score 4
Method: 34 and 49 (100 mg/kg, p.o.) was administered in forenoon.
The gross behavioral parameters were observed as follows (based on Irwin protocol):
• i). Spontaneous motor activity [SMA]: Scored on a scale of 0-9 in which SMA in control group was assigned score 4. • ii). Posture/Position: Normal upright posture (+: present or −: absent) • iii). Gait: The mouse is allowed to move on the edge of the cage for 1 min and straight movements without fall or staggering is considered as normal. The gait is recorded as normal or abnormal; if abnormal description is provided. • iv). Ataxia: Any in-coordination in movements occurring in absence of involuntary movements. (+: present or −: absent) • v). Tremor: Involuntary movements (jerking of entire body or limbs) due to alternating contraction of muscles. (+: present or −: absent) • vi). Convulsions: Alternate contraction (flexion) and extension [clonic], or sustained extension [tonic] of limbs resulting into loss of upright posture (+: present or −: absent). • vii). Straub's tail: A sustained (>30 sec) raising of tail (making an angle >60° with the body) (+: present or −: absent) • viii). Catalepsy: A condition in which body or limbs remain passively in any position in which they are placed. It is tested by the placing forepaws on a metallic rod placed at height of 6 cm and if forepaws are not withdrawn within 10 sec catalepsy is considered to be positive (+: present or −: absent). • ix). Abnormal (Bizarre) behaviour: Stereotypy, head shaking, head searching, upright walking, and circling (+: present or −: absent). Results

Swiss mice [2] = assay: Maximal electroshock seizures (MES); type: in vivo, mouse; conditions: 100 mg/kg p.o.; for Numbers of mice showed seizures/numbers of mice tested: 48 mAmp for 0.2 sec
Method: Control and treated mice (−60 min) were subjected to electric shock (48 mAmp for 0.2 sec) through pinna electrode.

[3] = system: streptozotocin-induced diabetic rats; assay: Sucrose-challenged streptozotocin-induced diabetic rats (STZ-S); type: in vivo, rat; conditions: for % Fall in blood glucose levels, STZ-S 5 h / % Fall in blood glucose levels, STZ-S 24 h: 100 mg/kg oral
Method: Male albino rats of Sprague Dawley strain of body weight 160+20 g were selected for this study. Streptozotocin (Sigma, USA) was dissolved in 100 mM citrate buffer pH 4.5 and calculated amount of the fresh solution was injected to overnight fasted rats (45 mg/kg) intraperitoneally. Blood glucose level was checked 48 h later by glucostrips and animals showing blood glucose values between 144 to 270 mg/dl (8 to 15 mM) were included in the experiment and termed diabetic. The diabetic animals were divided into groups consisting of five to six animals in each group. Animals of experimental groups were administered suspension of the desired test samples orally (made in 1.0% gum acacia) at a dose of 100-mg/kg-body weight. Animals of control group were given an equal amount of 1.0% gum acacia. A sucrose load of 2.5-g/kg body weight was given after 30 minutes of compound administration. After 30 minutes of post sucrose load blood glucose level was again checked by glucostrips at 30, 60, 90, 120, 180, 240, 300 min and at 24 h, respectively. Animals not found diabetic after 24 hours post treatment of the test sample were not considered and omitted from the calculations and termed as non-responders. […] Food but not water was withheld from the cages during the experimentation. Comparing the AUC of experimental and control groups determined the percent antihyperglycemic activity. Statistical comparison between groups was made by Student's ‘t’ test.
As depicted in the FIGURE, a dose response curve of 34 was obtained by administering different doses of test compound to streptozotocin-induced diabetic rats (Table 6). […]

SMILES	% Fall in lipid levels HDL (db/db mice)	% Fall in lipid levels Chol. (db/db mice)	% Fall in lipid levels TG (db/db mice)	Effect on motor responses (Swiss mice [1])	SMA Score (Swiss mice [1]; 0 min)	SMA Score (Swiss mice [1]; 30 min)	SMA Score (Swiss mice [1]; 60 min)	SMA Score (Swiss mice [1]; 90 min)	SMA Score (Swiss mice [1]; 120 min)	SMA Score (Swiss mice [1]; 150 min)	SMA Score (Swiss mice [1]; 180 min)	Anti-convulsant activity (Swiss mice [2])	Numbers of mice showed seizures/numbers of mice tested (Swiss mice [2])	% Fall in blood glucose levels, STZ-S 5 h [3]	% Fall in blood glucose levels, STZ-S 24 h [3]	also measured
CC(C)NCC(O)COc1ccc2c(=O)cc(-c3cc(O)cc(O)c3)oc2c1 (stereo not drawn) [Compound 49, 3′,5′-Dihydroxy-7-(2-hydroxy-3-iso-propylamino-propoxy)-flavone]	+12.7%	17.2%	24.1%	did not show any significant effect	4	4	4	4	4	4	4	did not show any significant anti-convulsant activity	5/5	26.9** %	13.2* %	–
COc1cc(-c2cc(=O)c3ccc(OCCCOc4ccc(C=C5SC(=O)NC5=O)cc4)cc3o2)cc(OC)c1OC [Compound 65, 7-{3-[4-(thiazolidin-2,4-dione-5-ylidinemethyl)-phenoxy]-propoxy}-3′,4′,5′-trimethoxy-flavone]	35.2%	1.06%	19.1%	–	–	–	–	–	–	–	–	–	–	16.1%	11.0%	–
CC(C)(C)NCC(O)COc1ccc2c(=O)cc(-c3cc(OCc4ccccc4)cc(OCc4ccccc4)c3)oc2c1 (stereo not drawn) [Compound 34, 7-(3-tert-Butylamino-2-hydroxy-propoxy)-3′,5′-dibenzyloxy-flavone]	+19.3%	+26.9%	33.5%	did not show any significant effect	4	4	4	4	4	4	4	did not show any significant anti-convulsant activity	5/5	21.6** %	28.7** %	% Fall in blood glucose levels 5 h ([3]; Dose 25, 5 h): 11.1%; % Fall in blood glucose levels 24 h ([3]; Dose 25, 24 h): 13.6%; % Fall in blood glucose levels 5 h ([3]; Dose 50, 5 h): 9.62%; % Fall in blood glucose levels 24 h ([3]; Dose 50, 24 h): 13.8%; % Fall in blood glucose levels 5 h ([3]; Dose 100, 5 h): 19.8%; % Fall in blood glucose levels 24 h ([3]; Dose 100, 24 h): 21.9%; % Fall in blood glucose levels 5 h ([3]; Dose 150, 5 h): 24.3%; % Fall in blood glucose levels 24 h ([3]; Dose 150, 24 h): 30.5%; % Fall in blood glucose levels 5 h ([3]; Dose 200, 5 h): 38.1%; % Fall in blood glucose levels 24 h ([3]; Dose 200, 24 h): 37.0%; % Fall in blood glucose levels 5 h ([3]; Dose 250, 5 h): 40.7%; % Fall in blood glucose levels 24 h ([3]; Dose 250, 24 h): 45.5%; ED50 ([3]; Rattus norvegicus, STZ-S model, dose response): 90 mg/kg
